Results on five compounds are retold here after US4788200A, “Method and composition for treating arteriosclerosis” (MECT Corporation, priority 1986, dated 1988).

In one data set the test system is blood platelets. As to the kind of experiment: Anticoagulating function for inhibiting coagulation of blood platelets (aggregometer, PRP, arachidonic acid). As to conditions: for Response (inhibition of coagulation of blood platelets): in vitro, arachidonic acid 50 mcg/ml, rabbit PRP, 37° C., 2 minutes. It counts as cell-based, rabbit (White Japanese native species). The procedure: White Japanese native species male rabbits each having a body weight of from 2.5 to 4.0 kg were used. The state of health of the rabbits was checked by visual examination for such as diarrhea and scabies in the ears, and the number of blood platelets and the hematocrit value of the individual rabbits were determined using the blood taken from the auricular vein of the individual rabbits. Rabbits each having a number of blood platelets of from 30×10^4 to 50×10^4 […] and a hematocrit value of from 30 to 40% were selected and the thus selected rabbits were fed for a pre-breeding period of one week, and then the number of blood platelets and the hematocrit value of the thus bred rabbits were determined again.
Using an injection tube treated with silicone, blood was taken from the auricular artery so that the ratio of blood to a 3.8% sodium citrate solution was 9 to 1 by volume, and the content of the tube was subjected to centrifugal separation at 100 to 140 g for 10 minutes. The supernatant was separated as platelet rich plasma (PRP), and the lower phase was further subjected to centrifugal separation at 450 g or 300 g for 10 minutes to obtain a platelet poor plasma (PPP). After subjecting the PRP to centrifugal separation at 800 g for 10 minutes, precipitated blood platelets were rinsed one time with a 5 m MEDTA deprived of Ca^2+ and MG^2+ and Hepes-Tyrode buffer (pH 7.4), and then suspended in Hepes-Tyrode buffer (pH 7.4) to obtain rinsed blood platelets. In the coagulation experiment, the number of blood platelets in PRP was directly counted by the Brecher-Cronkite method to control the same within the range of from 50×10^4 to 70×10^4 /mm^3.
Using an aggregometer, PRP was added with each of specimen drugs, followed by incubation at 37° C. for a predetermined time period (2 minutes), and an aggregation provoker (arachidonic acid, 50 mcg/ml) was added and then subjected to measurement.
The control drug used was Aspirin.

For the next data set, the system named is metastasis of cancer. As to conditions: experiments using animals; cited from earlier work.
Data set [1] has as its system lipoproteins precipitated by heparin (corresponding to the fractions of LDL and VLDL). Briefly: Effect against hyperlipidemia (Demonstration 2): lipoproteins precipitated by heparin (HPL, LDL and VLDL fractions) in blood serum. It counts as in vivo, mice. As to conditions: for Decrease of HPL / HPL/Cholesterol ratio: mice, oral; for HPL/Cholesterol ratio: criterion not more than 0.92. The procedure: Six mice were bred with high cholesterol-cholic acid feeds for 7 days so as to induce hyperlipidemia; one half of the total dose of each compound (I) as set forth in Table 1 was orally administered at the sixth day and the other half was orally administered at the seventh day. After starving the mice for one night, the cholesterol content of the blood serum of the respective mice was determined. It was judged that the tested compound had the desired activity (of reducing fat content of blood) when the cholesterol content of the blood serum was decreased by 15% or more as compared to that of the mice of the control group. Similar experiments were conducted as in Example 2, and it was judged that the tested compound had the desired activity (of reducing fat content in blood) when the content of lipoproteins precipitated by heparin (corresponding to the fractions of LDL and VLDL) in the blood serum of the tested group was decreased by 20% or more as compared to that of the mice of control group. Decrease of atheromic β-LDL or increase of HDL could be estimated when the ratio of lipoproteins precipitated by heparin to cholesterol (HPL/cholesterol) was not more than 0.92.

A further data set in a line: Test on acute toxicity. The class given is in vivo, mice. The conditions noted are these: for acute toxicity, changes observed: mice. How it is done:
The compound (I) was administered to mice in an amount of 300 mg/kg orally or abdominally.

Data set [2] deals with cholesterol content of the blood serum. As to the kind of experiment: Effect against hyperlipidemia (Demonstration 1): cholesterol content of blood serum. The class given is in vivo, mice. The conditions noted are these: for Reduction Rate of Cholesterol in Blood Serum: mice, oral. How it is done: Six mice were bred with high cholesterol-cholic acid feeds for 7 days so as to induce hyperlipidemia; one half of the total dose of each compound (I) as set forth in Table 1 was orally administered at the sixth day and the other half was orally administered at the seventh day. After starving the mice for one night, the cholesterol content of the blood serum of the respective mice was determined. It was judged that the tested compound had the desired activity (of reducing fat content of blood) when the cholesterol content of the blood serum was decreased by 15% or more as compared to that of the mice of the control group.

In the case of `CC(=O)Oc1ccccc1C(=O)O` [Aspirin, reference compound], the “Response (inhibition of coagulation of blood platelets)” value with blood platelets (2.5 γ (μg/ml)) stood at 100. For the same compound, the “effect of inhibiting metastasis of cancer” value in the data set with metastasis of cancer is “have the effect of inhibiting metastasis of cancer”.
`COc1ccc(-c2nc3sc4ccccc4n3c(=O)c2-c2ccccc2)cc1` [Compound (I), 2-(p-methoxyphenyl)-3-phenylpyrimido[2,1-b]benzothiazole-4(4H)-one]: the “pharmaceutical efficacy relative to control agent D-thiroxicine” value in data set [1] (from Table 2, fraction of D-thiroxicine efficacy) was “about 2/5”. In addition, the “Decrease of HPL” value in data set [1] (10 mg/kg) is listed as 17%; in data set [1] (25 mg/kg), 23%. The HPL/Cholesterol ratio in data set [1] (25 mg/kg) came to 0.92. The “efficacy relative to control drug Aspirin” value in the data set with blood platelets (from Table 3) amounted to 2.5 times. Further, the “Response (inhibition of coagulation of blood platelets)” value with blood platelets (1 γ (μg/ml)) turned out to be 100. Moreover, the “acute toxicity, changes observed” value in the data set “Test on acute toxicity” (abdominal, 200 mg/kg) is “No changes were observed”; in the data set “Test on acute toxicity” (oral, 300 mg/kg), “No changes were observed”. Further, the “toxicity on successive administration, changes observed” value in the data set “Test on acute toxicity” (mouse, in vivo, 100 mg/kg) is listed as “no substantial change was observed”. Further, in data set [2] (from Table 1, fraction of D-thyroxine efficacy), the “pharmaceutical efficacy relative to control agent D-thyroxine” value was “about 2/5”. Also, the “Reduction Rate of Cholesterol in Blood Serum” value in data set [2] (10 mg/kg) was 11%; in data set [2] (25 mg/kg), 16%.
`N[C@H](Cc1cc(I)c(Oc2cc(I)c(O)c(I)c2)c(I)c1)C(=O)O` [D-thyroxine, reference compound]: in data set [1] (10 mg/kg), the “Decrease of HPL” value is 35% and the HPL/Cholesterol ratio was determined as 0.93. Moreover, the “Reduction Rate of Cholesterol in Blood Serum” value in data set [2] (10 mg/kg) turned out to be 30%.
As to `OCCN(CCO)c1nc(N2CCCCC2)c2nc(N(CCO)CCO)nc(N3CCCCC3)c2n1` [dipyridamol], in the data set on metastasis of cancer, the “effect of inhibiting metastasis of cancer” value is “have the effect of inhibiting metastasis of cancer”.
`Clc1ccccc1CN1CCc2sccc2C1` [ticlopidine]: the “effect of inhibiting metastasis of cancer” value in the data set with metastasis of cancer is reported as “have the effect of inhibiting metastasis of cancer”.
